# Results reported in patent US10131652B2, “Pyrimidinyloxy benzene derivatives as herbicides” (E. I. DU PONT DE NEMOURS AND COMPANY, priority 2014, dated 2018).
# Where two headings read alike, the source gives them in different places.
# Legend:
# Format in all cases: in vivo
# kochia (Kochia scoparia) [1] = assay: Test D postemergence plant response; settings: for pest or weed control at 31 g/ha: 31 g ai/ha; for pest or weed control at 62 g/ha: 62 g ai/ha
# How it was run: (§1)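 Visual 0–100 rating vs controls (0 = no effect, 100 = complete control), scored 13–15 d after postemergence spray. Plants 1- to 4-leaf stage (2–18 cm), potted in peat/vermiculite mix, kept in greenhouse.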
# wild oat (Avena fatua) = assay: Test D postemergence plant response; settings: for pest or weed control at 31 g/ha: 31 g ai/ha; for pest or weed control at 62 g/ha: 62 g ai/ha
# How it was run: as §1
# [2] = system: waterhemp_RES1 (ALS & Triazine resistant common waterhemp, Amaranthus rudis); assay: Test F postemergence plant response; settings: scale 0 to 100
# Experimental: (§2) At the same time, plants from these crop and weed species and also waterhemp_RES1, (ALS & Triazine resistant common waterhemp, Amaranthus rudis), and waterhemp_RES2, (ALS & HPPD resistant common waterhemp, Amaranthus rudis) were treated with postemergence applications of test chemicals formulated in the same manner. Plants ranged in height from 2 to 18 cm for postemergence treatments (1- to 4-leaf stage).
# (§3) Treated plants and controls were maintained in a greenhouse for 14 to 21 days, after which time all species were compared to controls and visually evaluated. Plant response ratings, summarized in Table F, are based on a scale of 0 to 100 where 0 is no effect and 100 is complete control. A dash (-) response means no test result.
# [3] = system: waterhemp_RES2 (ALS & HPPD resistant common waterhemp, Amaranthus rudis); assay: Test F postemergence plant response; settings: scale 0 to 100
# Experimental: as §2, §3
# kochia (Kochia scoparia) [4] = assay: Test F pre-/postemergence plant response; settings: Bassia scoparia, pre-emergence, scale 0 to 100, read-out: Plant response rating, Kochia; for pest or weed control at 8 g/ha: 8 g ai/ha Preemergence; for pest or weed control at 31 g/ha: 31 g ai/ha; for pest or weed control at 125 g/ha: 125 g ai/ha
# Description: (§4) Seeds of plant species selected from corn (Zea mays), soybean (Glycine max), velvetleaf (Abutilon theophrasti), lambsquarters (Chenopodium album), wild poinsettia (Euphorbia heterophylla), palmer pigweed (Amaranthus palmeri), waterhemp (common waterhemp, Amaranthus rudis), surinam grass (Brachiaria decumbens), large (Lg) crabgrass (Digitaria sanguinalis), Brazilian crabgrass (Digitaria horizontalis), fall panicum (Panicum dichotomiflorum), giant foxtail (Setaria faberii), green foxtail (Setaria viridis), goosegrass (Eleusine indica), johnsongrass (Sorghum halepense), ragweed (common ragweed, Ambrosia elatior), barnyardgrass (Echinochloa crus-galli), sandbur (southern sandbur, Cenchrus echinatus), arrowleaf sida (Sida rhombifolia), Italian ryegrass (Lolium multiflorum), dayflower (Virginia (VA) dayflower, Commelina virginica), field bindweed (Convolvulus arvensis), cocklebur (common cocklebur, Xanthium strumarium), momingglory (Ipomoea coccinea), nightshade (eastern black nightshade, Solanum ptycanthum), kochia (Kochia scoparia), yellow nutsedge (Cyperus esculentus), and hairy beggarticks (Bidens pilosa), were planted into a silt loam soil and treated preemergence with test chemicals formulated in a non-phytotoxic solvent mixture which included a surfactant.
# as §2, §3
# [5] = system: Italian ryegrass (Lolium multiflorum); assay: Test F pre-/postemergence plant response; settings: Lolium multiflorum, scale 0 to 100, read-out: Plant response rating, Ryegrass, Italian; for pest or weed control at 16 g/ha: 16 g ai/ha; for pest or weed control at 31 g/ha: 31 g ai/ha; for pest or weed control at 125 g/ha: 125 g ai/ha
# Description: as §4, §2, §3
# [6] = system: palmer pigweed (Amaranthus palmeri); assay: Test F pre-/postemergence plant response; settings: Amaranthus palmeri, scale 0 to 100, read-out: Plant response rating, Pigweed, Palmer
# Description: as §4, §2, §3
# [7] = system: nightshade (eastern black nightshade, Solanum ptycanthum); assay: Test F pre-/postemergence plant response; settings: Solanum, pre-emergence, scale 0 to 100, read-out: Plant response rating, Nightshade; for pest or weed control at 8 g/ha: 8 g ai/ha Preemergence; for pest or weed control at 16 g/ha: 16 g ai/ha Preemergence; for pest or weed control at 31 g/ha: 31 g ai/ha Preemergence; for pest or weed control at 125 g/ha: 125 g ai/ha Preemergence; for pest or weed control at 62 g/ha: Preemergence
# Description: as §4, §2, §3
# [8] = Bassia scoparia, post-emergence, scale 0 to 100 (0 no effect, 100 complete control), read-out: Kochia plant response rating
# [9] = Bassia scoparia, post-emergence, scale 0 to 100, 0 no effect, 100 complete control, read-out: Plant response rating, Kochia
# [10] = Avena fatua, post-emergence, scale 0 to 100 (0 no effect, 100 complete control), read-out: Oat, Wild plant response rating
# [11] = Avena fatua, post-emergence, scale 0 to 100, 0 no effect, 100 complete control, read-out: Plant response rating, Oat, Wild
# [12] = post-emergence, 8 g ai/ha Postemergence
# [13] = post-emergence, 62 g ai/ha, Postemergence
# [14] = pre-emergence, 8 g ai/ha Preemergence
# [15] = post-emergence, 16 g ai/ha Postemergence
# [16] = post-emergence, 31 g ai/ha Postemergence
# [17] = post-emergence, 62 g ai/ha Postemergence
# [18] = post-emergence, 125 g ai/ha Postemergence
smiles,measurement,setting,value
"FC(F)c1cc(-c2ccccc2Oc2ncc(Cl)cn2)no1 [Compound 35, 5-chloro-2-[2-[5-(difluoromethyl)-3-isoxazolyl]phenoxy]pyrimidine]","Plant response rating (scale 0 to 100), Kochia",kochia (Kochia scoparia) [1]; 8 g ai/ha,95
same,pest or weed control at 16 g/ha,"kochia (Kochia scoparia) [1]; Bassia scoparia, post-emergence, 16 g ai/ha, scale 0 to 100 (0 no effect, 100 complete control), read-out: Kochia plant response rating",100%
same,pest or weed control at 31 g/ha,kochia (Kochia scoparia) [1]; [8],100%
same,pest or weed control at 62 g/ha,kochia (Kochia scoparia) [1]; [9],100%
same,"Plant response rating (scale 0 to 100), Oat, Wild",wild oat (Avena fatua); 8 g ai/ha,5
same,pest or weed control at 16 g/ha,"wild oat (Avena fatua); Avena fatua, post-emergence, 16 g ai/ha, scale 0 to 100 (0 no effect, 100 complete control), read-out: Oat, Wild plant response rating",10%
same,pest or weed control at 31 g/ha,wild oat (Avena fatua); [10],40%
same,pest or weed control at 62 g/ha,wild oat (Avena fatua); [11],45%
same,"Plant response rating, Waterhemp_RES1",[2]; 8 g ai/ha Postemergence,90
same,"Plant response rating, Waterhemp_RES1",[2]; 16 g ai/ha Postemergence,80
same,"Plant response rating, Waterhemp_RES1",[2]; 31 g ai/ha Postemergence,90
same,"Plant response rating, Waterhemp_RES1",[2]; 62 g ai/ha Postemergence,100
same,"Plant response rating, Waterhemp_RES1",[2]; 125 g ai/ha Postemergence,100
same,"Plant response rating, Waterhemp_RES2",[3]; 8 g ai/ha Postemergence,90
same,"Plant response rating, Waterhemp_RES2",[3]; 16 g ai/ha Postemergence,90
same,"Plant response rating, Waterhemp_RES2",[3]; 31 g ai/ha Postemergence,95
same,"Plant response rating, Waterhemp_RES2",[3]; 62 g ai/ha Postemergence,100
same,"Plant response rating, Waterhemp_RES2",[3]; 125 g ai/ha Postemergence,100
same,pest or weed control at 8 g/ha,kochia (Kochia scoparia) [4],0%
same,pest or weed control at 16 g/ha,"kochia (Kochia scoparia) [4]; 16 g ai/ha, Preemergence",40%
same,pest or weed control at 31 g/ha,kochia (Kochia scoparia) [4]; Preemergence,85%
same,pest or weed control at 125 g/ha,kochia (Kochia scoparia) [4]; Preemergence,100%
same,pest or weed control at 62 g/ha,kochia (Kochia scoparia) [4]; Preemergence,100%
same,pest or weed control at 8 g/ha,[5]; [12],0%
same,pest or weed control at 16 g/ha,"[5]; post-emergence, Postemergence",0%
same,pest or weed control at 31 g/ha,"[5]; post-emergence, Postemergence",0%
same,pest or weed control at 62 g/ha,[5]; [13],0%
same,pest or weed control at 125 g/ha,"[5]; post-emergence, Postemergence",0%
same,pest or weed control at 8 g/ha,[5]; [14],0%
same,pest or weed control at 16 g/ha,"[5]; pre-emergence, Preemergence",0%
same,pest or weed control at 31 g/ha,"[5]; pre-emergence, Preemergence",15%
same,pest or weed control at 125 g/ha,"[5]; pre-emergence, Preemergence",70%
same,pest or weed control at 62 g/ha,"[5]; pre-emergence, Preemergence",65%
same,pest or weed control at 8 g/ha,[6]; [12],60%
same,pest or weed control at 16 g/ha,[6]; [15],75%
same,pest or weed control at 31 g/ha,[6]; [16],95%
same,pest or weed control at 62 g/ha,[6]; [17],100%
same,pest or weed control at 125 g/ha,[6]; [18],100%
same,pest or weed control at 8 g/ha,[7],75%
same,pest or weed control at 16 g/ha,[7],95%
same,pest or weed control at 31 g/ha,[7],98%
same,pest or weed control at 125 g/ha,[7],100%
same,pest or weed control at 62 g/ha,[7],98%
"FC(F)c1cc(-c2ccccc2Oc2ncc(Br)cn2)no1 [Compound 62, 5-bromo-2-[2-[5-(difluoromethyl)-3-isoxazolyl]phenoxy]pyrimidine]",pest or weed control at 31 g/ha,kochia (Kochia scoparia) [1]; [8],98%
same,pest or weed control at 62 g/ha,kochia (Kochia scoparia) [1]; [9],100%
same,pest or weed control at 125 g/ha,"kochia (Kochia scoparia) [1]; Bassia scoparia, post-emergence, 125 g ai/ha, scale 0 to 100, 0 no effect, 100 complete control, read-out: Plant response rating, Kochia",100%
same,pest or weed control at 250 g/ha,"kochia (Kochia scoparia) [1]; Bassia scoparia, post-emergence, 250 g ai/ha, scale 0 to 100, 0 no effect, 100 complete control, read-out: Plant response rating, Kochia",100%
same,pest or weed control at 31 g/ha,wild oat (Avena fatua); [10],30%
same,pest or weed control at 62 g/ha,wild oat (Avena fatua); [11],40%
same,pest or weed control at 125 g/ha,"wild oat (Avena fatua); Avena fatua, post-emergence, 125 g ai/ha, scale 0 to 100, 0 no effect, 100 complete control, read-out: Plant response rating, Oat, Wild",50%
same,pest or weed control at 250 g/ha,"wild oat (Avena fatua); Avena fatua, post-emergence, 250 g ai/ha, scale 0 to 100, 0 no effect, 100 complete control, read-out: Plant response rating, Oat, Wild",60%
same,"Plant response rating, Waterhemp_RES1",[2]; 8 g ai/ha Postemergence,80
same,"Plant response rating, Waterhemp_RES1",[2]; 16 g ai/ha Postemergence,85
same,"Plant response rating, Waterhemp_RES1",[2]; 31 g ai/ha Postemergence,100
same,"Plant response rating, Waterhemp_RES1",[2]; 62 g ai/ha Postemergence,100
same,"Plant response rating, Waterhemp_RES1",[2]; 125 g ai/ha Postemergence,100
same,"Plant response rating, Waterhemp_RES2",[3]; 8 g ai/ha Postemergence,80
same,"Plant response rating, Waterhemp_RES2",[3]; 16 g ai/ha Postemergence,80
same,"Plant response rating, Waterhemp_RES2",[3]; 31 g ai/ha Postemergence,100
same,"Plant response rating, Waterhemp_RES2",[3]; 62 g ai/ha Postemergence,100
same,"Plant response rating, Waterhemp_RES2",[3]; 125 g ai/ha Postemergence,100
same,pest or weed control at 8 g/ha,kochia (Kochia scoparia) [4],10%
same,pest or weed control at 31 g/ha,kochia (Kochia scoparia) [4]; Preemergence,20%
same,pest or weed control at 125 g/ha,kochia (Kochia scoparia) [4]; Preemergence,95%
same,pest or weed control at 62 g/ha,kochia (Kochia scoparia) [4]; Preemergence,35%
same,pest or weed control at 8 g/ha,[5]; [12],0%
same,pest or weed control at 16 g/ha,"[5]; post-emergence, Postemergence",0%
same,pest or weed control at 31 g/ha,"[5]; post-emergence, Postemergence",0%
same,pest or weed control at 62 g/ha,[5]; [13],10%
same,pest or weed control at 125 g/ha,"[5]; post-emergence, Postemergence",10%
same,pest or weed control at 8 g/ha,[5]; [14],0%
same,pest or weed control at 16 g/ha,"[5]; pre-emergence, Preemergence",0%
same,pest or weed control at 31 g/ha,"[5]; pre-emergence, Preemergence",0%
same,pest or weed control at 125 g/ha,"[5]; pre-emergence, Preemergence",40%
same,pest or weed control at 62 g/ha,"[5]; pre-emergence, Preemergence",0%
same,pest or weed control at 8 g/ha,[6]; [12],90%
same,pest or weed control at 16 g/ha,[6]; [15],70%
same,pest or weed control at 31 g/ha,[6]; [16],95%
same,pest or weed control at 62 g/ha,[6]; [17],100%
same,pest or weed control at 125 g/ha,[6]; [18],100%
same,pest or weed control at 8 g/ha,[6]; [14],10%
same,pest or weed control at 16 g/ha,"[6]; pre-emergence, 16 g ai/ha Preemergence",80%
same,pest or weed control at 31 g/ha,"[6]; pre-emergence, 31 g ai/ha Preemergence",75%
same,pest or weed control at 125 g/ha,"[6]; pre-emergence, 125 g ai/ha Preemergence",100%
same,pest or weed control at 62 g/ha,"[6]; pre-emergence, Preemergence",100%
same,pest or weed control at 8 g/ha,[7],0%
same,pest or weed control at 16 g/ha,[7],0%
same,pest or weed control at 31 g/ha,[7],70%
same,pest or weed control at 125 g/ha,[7],100%
same,pest or weed control at 62 g/ha,[7],98%
